Consider 41 compounds from patent US20080004282A1, “Compositions and methods for modulating gated ion channels” (PainCeptor Pharma Corporation, priority 2006, published 2008).

For the assay, the target named is T1, ASIC1a (Homo sapiens, UniProt P78348).
T1 sequence (P78348 1-528): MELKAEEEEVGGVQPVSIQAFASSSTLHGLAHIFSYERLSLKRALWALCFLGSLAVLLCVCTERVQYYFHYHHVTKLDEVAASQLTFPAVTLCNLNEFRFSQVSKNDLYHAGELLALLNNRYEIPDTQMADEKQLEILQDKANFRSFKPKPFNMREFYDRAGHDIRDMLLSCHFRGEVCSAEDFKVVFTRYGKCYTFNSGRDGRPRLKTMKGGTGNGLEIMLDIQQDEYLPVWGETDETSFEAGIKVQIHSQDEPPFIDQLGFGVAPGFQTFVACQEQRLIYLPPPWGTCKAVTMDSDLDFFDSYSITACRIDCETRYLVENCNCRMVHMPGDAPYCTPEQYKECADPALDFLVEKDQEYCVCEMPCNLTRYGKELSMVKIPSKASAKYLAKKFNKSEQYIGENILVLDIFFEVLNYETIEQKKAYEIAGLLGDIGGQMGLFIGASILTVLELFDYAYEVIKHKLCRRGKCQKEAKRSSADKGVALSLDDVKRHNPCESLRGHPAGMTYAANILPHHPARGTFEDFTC
Kind of assay: Two-electrode voltage clamp of acid-induced currents in Xenopus laevis oocytes. Type of assay: cell-based. Also on record: expressed in transfected cells; host or cells: Xenopus laevis oocytes, nuclear microinjection of an expression vector such as pCDNA3. Conditions: 50 μM, Xenopus oocytes; read-out: % inh. at 50 μM (Xo). On the procedure: Screening and Bioanalysis of ASIC Antagonists in Xenopus laevis oocytes
This example describes the in vitro assessment of the activity of the compounds of the present invention.
Two-electrode voltage clamp electrophysiological assays in Xenopus laevis oocytes expressing gated ion channels are performed as follows:
Oocytes are surgically removed from adult Xenopus laevis and treated for 2 h at room temperature with 1 mg/ml type I collagenase (Sigma) in Barth's solution under mild agitation. Selected oocytes at stage IV-V are defolliculated manually before nuclear microinjection of 2.5-5 ng of a suitable expression vector, such as pCDNA3, comprising the nucleotide sequence encoding a gated ion channel subunit protein. In such an experiment, the oocytes express homomultimeric proton-gated ion channels on their surface. In an alternate experiment, one, two, three or more vectors comprising the coding sequences for distinct gated ion channel subunits are co-injected in the oocyte nuclei. In the latter case, oocytes express heteromultimeric proton-gated ion channels. For example, ASIC2a and/or ASIC3 subunits in pcDNA3 vector are co-injected at a 1:1 cDNA ratio. After 2-4 days of expression at 19° C. in Barth's solution containing […] gentamicin and 1.8 mM CaCl2, gated ion channels are activated by applying an acidic solution (pH<7) and currents are recorded in a two electrode voltage-clamp configuration, using an OC-725B amplifier (Warner Instruments). Currents are acquired and digitized at 500 Hz on an Apple Imac G3 computer with an A/D NB-MIO-16XL interface (National Instruments) and recorded traces are post-filtered at 100 Hz in Axograph (Axon Instruments) (Neher, E. and Sakmann, B. (1976) Nature 260:799-802). Once impaled with the microelectrodes, oocytes are continuously superfused at 10-12 ml/min with a modified Ringer's solution containing 97 mM NaCl, 2 mM KCl, 1.8 mM CaCl2, and 10 mM HEPES brought to pH 7.4 with NaOH (Control Ringer). Test Ringer solution is prepared by replacing HEPES with MES and adjusting the pH to the desired acidic value. Compounds of the present invention are prepared in both the Control and Test Ringer solutions and applied to oocytes at room temperature through a computer-controlled switching valve system. Osmolarity of all solutions is adjusted to 235 mOsm with choline chloride. Similarly, recordings can also be acquired in an automated multichannel oocytes system as the OpusExpress™ (Molecular Devices, Sunnyvale, USA).
FIGS. 1A and 2A illustrate the inhibitory effects of Compounds 12 and 44 on acid-induced activation of recombinant homomeric hASIC1a channels. FIGS. 1A and 2A show the dose-dependent inhibition of the acid-induced hASIC1a currents recorded from Xenopus laevis oocytes using the two-electrode voltage clamp method (as described in this example) in the absence or presence of increasing concentration of the compounds.
(In general: Two-electrode voltage clamp is typically applied to oocytes expressing channels or transporters.)

For `CCN1CCc2c(-c3cc(F)ccc3OC)ccc(NCC(=O)OC)c2C1` [Compound 2, [2-Ethyl-5-(5-fluoro-2-methoxy-phenyl)-1,2,3,4-tetrahydro-isoquinolin-8-ylamino]-acetic acid methyl ester], the inhibition at 50 µM was below 20%.

`COc1ccc(F)cc1-c1cc(-c2noc(=O)[nH]2)c(N)c2c1CCN(C)C2` [Compound 5, 3-[8-Amino-5-(5-fluoro-2-methoxy-phenyl)-2-methyl-1,2,3,4-tetrahydro-isoquinolin-7-yl]-4H-[1,2,4]oxadiazol-5-one]: the inhibition at 50 µM was below 20%.

Turning to `CCN1CCc2c(-c3ccccc3)cc(C#N)c(NC(C)=O)c2C1` [Compound 8, N-(7-Cyano-2-ethyl-5-phenyl-1,2,3,4-tetrahydro-isoquinolin-8-yl)-acetamide], the inhibition at 50 µM was in the range of 20 to 30%.

Take `CCN1CCc2c(-c3ccccc3)cc(C#N)c(NS(C)(=O)=O)c2C1` [Compound 9, N-(7-Cyano-2-ethyl-5-phenyl-1,2,3,4-tetrahydro-isoquinolin-8-yl)-methanesulfonamide]: the inhibition at 50 µM fell in the range of 15 to 25%.

With `CCN1CCc2c(-c3ccccc3)cc(C#N)c(NC(=O)CC(=O)OC)c2C1` [Compound 14, N-(7-Cyano-2-ethyl-5-phenyl-1,2,3,4-tetrahydro-isoquinolin-8-yl)-malonamic acid methyl ester], the inhibition at 50 µM is 20 to 30%.

Consider `CCN1CCc2c(-c3cc(F)ccc3OC)ccc(N3C(=O)CNC3=O)c2C1` [Compound 22], for which the inhibition at 50 µM was below 20%.

For the compound `CCN1CCc2c(-c3cc(F)ccc3OC)ccc(NC(N)=O)c2C1` [Compound 23], the inhibition at 50 µM lay in the range of 20 to 30%.

`CCOC(=O)CNC(=O)Nc1ccc(-c2cc(F)ccc2OC)c2c1CN(CC)CC2` [Compound 24]: the inhibition at 50 µM is 20 to 30%.

Regarding `CCN1CCc2c(-c3cc(F)ccc3OC)ccc(N3CC(=O)NC3=O)c2C1` [Compound 25], the inhibition at 50 µM is above 40%.

For the compound `CCN1CCc2c(-c3cc(F)ccc3OC)ccc(NC(=O)NC(=O)N3C(=O)CN(c4ccc(-c5cc(F)ccc5OC)c5c4CN(CC)CC5)C3=O)c2C1` [Compound 26], the inhibition at 50 µM is above 30%.

In the case of `CCN1CCc2c(-c3cc(F)ccc3OC)ccc(NC=O)c2C1` [Compound 27], the inhibition at 50 µM was below 20%.

With `CCN1CCc2c(cc(N3C(=O)CNC3=O)cc2-c2cc(F)ccc2OC)C1` [Compound 28], the inhibition at 50 µM fell in the range of 20 to 30%.

Take `CC(=O)N1CCc2c(-c3ccccc3)cc(C#N)c(N)c2C1` [Compound 29]: the inhibition at 50 µM lay within 20 to 30%.

With `N#Cc1cc(-c2ccccc2)c2ccncc2c1N` [Compound 30], the inhibition at 50 µM lay within 20 to 30%.

Take `Cc1cc2c(N)c(C#N)cc(-c3ccccc3)c2cn1` [Compound 31]: the inhibition at 50 µM was above 30%.

In the case of `Cc1cc2c(N)c(-c3ccccc3)cc(C#N)c2cn1` [Compound 32], the inhibition at 50 µM was above 30%.

As for `CCN1CCc2c(-c3ccccc3)cc(/C(N)=N/O)c(N)c2C1` [Compound 33], the inhibition at 50 µM is above 30%.

Take `CCN1CCc2c(-c3cc(F)ccc3OC)ccc(NC)c2C1` [Compound 34]: the inhibition at 50 µM was above 40%.

As to `CCN1CCc2c(-c3ccccc3)ccc(N)c2C1` [Compound 35], the inhibition at 50 µM is 20 to 30%.

On to `CCN1CCc2c(-c3ccccc3)cc(-c3ccccn3)c(N)c2C1` [Compound 36], for which the inhibition at 50 µM was below 20%.

For `CCN1CCc2c(-c3ccccc3)cc(-c3cnccn3)c(N)c2C1` [Compound 37], the inhibition at 50 µM is above 30%.

For the compound `CCN1CCc2c(-c3ccccc3)cc(-c3cnn(C)c3N)c(N)c2C1` [Compound 38], the inhibition at 50 µM was above 30%.

On to `CCN1CCc2c(-c3ccccc3)cc(-c3ccc(C)nn3)c(N)c2C1` [Compound 39], for which the inhibition at 50 µM was in the range of 20 to 30%.

For `CCN1CCc2c(-c3ccccc3)cc(-c3cccc(C)n3)c(N)c2C1` [Compound 40], the inhibition at 50 µM was above 30%.

For the compound `CCN1CCc2c(cc(C#N)cc2-c2ccccc2)C1` [Compound 41], the inhibition at 50 µM was above 30%.

For the compound `CCN1CCc2c(-c3ccccc3)cc(C#N)c(O)c2C1` [Compound 42], the inhibition at 50 µM fell in the range of 20 to 30%.

As to `CCN1CCc2c(-c3ccccc3)cc(Br)c(N)c2C1` [Compound 46], the inhibition at 50 µM is above 40%.

`CCN1CCc2c(-c3cc(C)ccc3C)cc(C#N)c(N)c2C1` [Compound 47]: the inhibition at 50 µM is above 40%.

Consider `CCN1CCc2c(-c3ccccc3)cc(Br)c(N(C)C)c2C1` [Compound 49], for which the inhibition at 50 µM was in the range of 20 to 30%.

For the compound `CCN1CCc2c(-c3ccccc3)cc(C#N)c([N+](=O)[O-])c2C1` [Compound 51], the inhibition at 50 µM was in the range of 20 to 30%.

As to `CCN1CCc2c(-c3ccccc3)cc(C#N)c(Cl)c2C1` [Compound 52], the inhibition at 50 µM fell in the range of 25 to 35%.

Consider `CCN1CCc2c(-c3ccccc3)cc(C#N)c(N3CCCC3)c2C1` [Compound 53], for which the inhibition at 50 µM was above 40%.

Regarding `CCN1CCc2c(-c3cccnc3)cc(C#N)c(N)c2C1` [Compound 54], the inhibition at 50 µM is above 50%.

Turning to `CCN1CCc2c(-c3ccncc3)cc(C#N)c(N)c2C1` [Compound 55], the inhibition at 50 µM is below 20%.

For the compound `CCN1CCc2c(-c3ccccc3)cc(C#N)c(N(S(C)(=O)=O)S(C)(=O)=O)c2C1` [Compound 56], the inhibition at 50 µM is below 20%.

With `CCN1CCc2c(-c3ccccc3)cc(C#N)c(NC(=O)C(=O)OC)c2C1` [Compound 57], the inhibition at 50 µM is below 20%.

As for `CCN1CCc2c(-c3ccccc3)cc(C#N)c(N3C(=O)CCC3=O)c2C1` [Compound 58], the inhibition at 50 µM was in the range of 20 to 30%.

On to `CCN1CCc2c(-c3ccccc3)cc(C#N)c(-n3cccc3)c2C1` [Compound 59], for which the inhibition at 50 µM was above 50%.

Take `CCN1CCc2c(-c3ccccc3)cc(C#N)c(-c3cccnc3)c2C1` [Compound 60]: the inhibition at 50 µM was 45 to 55%.

For the compound `CCN1CCc2c(-c3ccccc3)cc(C#N)c(Br)c2C1` [Compound 61], the inhibition at 50 µM is above 30%.

Regarding `CCN1CCc2c(-c3ccccc3)cc(C#N)c(-c3cnn(C)c3)c2C1` [Compound 62], the inhibition at 50 µM is above 30%.
